{
  "source": "patent EP2604265A1",
  "about": "“P2x7 antagonists as frontline or adjunctive treatment against status epilepticus” (Royal College of Surgeons in Ireland (RCSI), priority 2011, dated 2013)",
  "key": {"glutamate receptors": {"tested_on": "glutamate receptors", "test": "Fura-2 calcium microfluorimetry, glutamate-evoked calcium entry", "type": "cell-based, mouse", "conditions": "cultured hippocampal neurons; glutamate 100 µM; BBG 1 µM", "protocol": "Hippocampal neurons were prepared as described previously (Diaz-Hernandez et al., 2008). Briefly, hippocampi were obtained from E17 mouse embryos and, after dissection and washing three times in Ca^2+/Mg^2+-free HBSS, tissue was digested in the same solution with 0.25% trypsin for 15 min at 37°C. Hippocampi were then washed three times in Ca^2+/Mg^2+-free HBSS and dissociated with a firepolished Pasteur pipette. Cells were counted, resuspended in plating medium (MEM, 10% fetal bovine serum, 0.6% glucose) and plated at a density of 5,000 cells/cm^2 on poly-L-lysine coated coverslips (1 mg/ml). After plating, neurons were cultured for 24-72 h in neuronal culture medium (Neurobasal, B-27, glutamax-I). For biochemical experiments, hippocampal neurons were plated on polylysine-coated (1 mg/ml) 60-mm plates at a density of 200,000 cells/cm^2, and cultured for 72 h in neuronal culture medium. AraC was added at a final concentration of 5 µM after 2 days in culture.\nCalcium microfluorimetric analysis in single neurons was carried out according to (Diaz-Hernandez et al., 2001). […]\nNeurons were visualized using a Plan Fluor x40 S/0.5-1.3 oil lens. […] The background was subtracted at each wavelength and the 340 / 380 ratio was calculated. The data are represented as the normalized F340/F380 fluorescence ratio, which increases as [Ca^2+]i increases."}, "IL-1β": {"tested_on": "IL-1β", "test": "Western blot of hippocampal IL-1β after SE", "type": "in vivo, mice", "conditions": "ipsilateral hippocampus, 24 h after KA", "protocol": "Adult male C57BL/6 mice (20-25 g) were obtained from Harlan UK (Blackthorn, UK). Mice were first anesthetized using isoflurane (3-5%) and maintained normothermic by means of a feedback-controlled heat blanket (Harvard Apparatus Ltd, Kent, UK). Mice were next placed in a stereotaxic frame and three partial craniectomies performed to affix cortical skull-mounted EEG electrodes (Bilaney Consultants Ltd, Sevenoaks, UK). EEG was recorded using a Grass Comet XL digital EEG (Medivent Ltd, Lucan, Ireland). A guide cannula was affixed (coordinates from Bregma: AP = 0.94; L = 2.85 mm) and the assembly fixed in place with dental cement. Anesthesia was then discontinued and freely moving mice were placed inside a clear perspex recording chamber. […]\nWestern blotting was performed as previously described (Engel et al., 2010). […] Protein concentration was determined and then 20 or 50 µg samples boiled in gel-loading buffer and separated by 10, 12 or 15% sodium dodecyl sulphate-polyacrylamide gel electrophoresis. […] Gel band image densities were captured using a Fuji-film LAS-3000 and analyzed using Alpha-EaseFC4.0 software as described (Engel et al., 2010)."}, "P2X2": {"target": "T1, P2X2 (Homo sapiens, UniProt Q9UBL9)", "T1 sequence (Q9UBL9 1-471)": "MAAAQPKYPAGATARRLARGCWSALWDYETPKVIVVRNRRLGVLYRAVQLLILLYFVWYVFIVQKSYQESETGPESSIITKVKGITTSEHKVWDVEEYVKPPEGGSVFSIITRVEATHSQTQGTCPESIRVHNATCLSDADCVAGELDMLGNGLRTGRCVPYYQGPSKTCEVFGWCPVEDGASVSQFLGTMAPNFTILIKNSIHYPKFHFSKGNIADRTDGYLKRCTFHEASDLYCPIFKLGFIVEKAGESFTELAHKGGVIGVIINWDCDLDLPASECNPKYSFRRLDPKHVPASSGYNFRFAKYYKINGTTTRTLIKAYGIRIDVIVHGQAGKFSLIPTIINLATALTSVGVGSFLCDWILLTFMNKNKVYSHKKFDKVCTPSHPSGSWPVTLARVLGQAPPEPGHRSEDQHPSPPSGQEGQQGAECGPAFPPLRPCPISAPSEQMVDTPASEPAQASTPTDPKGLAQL", "conditions": "selectivity of BBG; cited from earlier work"}},
  "data": [
    {"compound": "CCOc1ccc(Nc2ccc(C(=C3C=CC(=[N+](CC)Cc4cccc(S(=O)(=O)[O-])c4)C=C3C)c3ccc(N(CC)Cc4cccc(S(=O)(=O)O)c4)cc3C)cc2)cc1", "note": "[BBG, Brilliant Blue G]", "values": [
      {"measurement": "glutamate-induced calcium entry", "setting": "glutamate receptors", "value": "failed to alter"},
      {"measurement": "IL-1β induction after SE", "setting": "IL-1β", "value": "significantly reduced"},
      {"measurement": "inhibition of P2X2", "setting": "P2X2", "value": "low micromolar range"}
    ]}
  ]
}
